Molecular target: recombinant human HPK1 (Homo sapiens (Human), UniProt Q92918)
Assay: HPK1 kinase assay (ADP-Glo)
Type: biochemical
Details: 25 μM ATP, MBP substrate
How it was run: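 Activity was read as ADP formed, detected by ADP-Glo luminescence after the reaction of 5 ng recombinant human HPK1 with MBP and ATP (stocks 0.5 μg/μl and 25 μM) for 40 min at 30 °C. Buffer was Tris pH 7.5 with MgCl2, BSA and DTT, with compound in 0.5% DMSO. IC50 came from inhibition curves.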

recombinant human HPK1, sequence (Q92918 whole entry): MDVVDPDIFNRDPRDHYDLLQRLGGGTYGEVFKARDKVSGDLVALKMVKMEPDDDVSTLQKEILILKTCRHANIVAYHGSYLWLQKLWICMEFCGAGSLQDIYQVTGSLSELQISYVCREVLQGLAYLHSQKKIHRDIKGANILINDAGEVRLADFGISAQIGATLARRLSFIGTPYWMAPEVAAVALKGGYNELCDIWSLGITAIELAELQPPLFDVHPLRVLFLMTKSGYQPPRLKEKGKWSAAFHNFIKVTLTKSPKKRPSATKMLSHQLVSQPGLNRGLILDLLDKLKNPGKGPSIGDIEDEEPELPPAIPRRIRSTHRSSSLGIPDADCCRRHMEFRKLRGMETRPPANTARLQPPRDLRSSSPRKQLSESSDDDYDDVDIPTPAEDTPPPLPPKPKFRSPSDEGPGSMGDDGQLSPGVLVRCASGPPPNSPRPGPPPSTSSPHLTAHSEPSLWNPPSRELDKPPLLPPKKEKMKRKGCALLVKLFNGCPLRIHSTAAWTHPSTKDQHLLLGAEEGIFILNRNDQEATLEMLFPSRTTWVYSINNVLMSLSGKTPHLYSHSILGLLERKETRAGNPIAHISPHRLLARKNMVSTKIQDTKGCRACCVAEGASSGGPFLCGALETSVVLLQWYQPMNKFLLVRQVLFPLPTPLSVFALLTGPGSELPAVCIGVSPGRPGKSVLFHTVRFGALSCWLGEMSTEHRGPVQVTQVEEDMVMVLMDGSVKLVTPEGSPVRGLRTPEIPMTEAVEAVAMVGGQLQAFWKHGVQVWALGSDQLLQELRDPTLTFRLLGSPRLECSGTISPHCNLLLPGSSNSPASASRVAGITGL

Row | IC50 | Compound
1 | 101 to 500 nM | O=C(Nc1cc2cc(-c3c(Cl)c(F)c(N4CCNCC4)c4[nH]ncc34)ccn2n1)[C@@H]1C[C@@H]1F [Example 500, (1S,2S)-N-(5-(5-chloro-6-fluoro-7-(piperazin-1-yl)-1H-indazol-4-yl)pyrazolo[1,5-a]pyridin-2-yl)-2-fluorocyclopropane-1-carboxamide]
2 | < 100 nM | C[S+]([O-])c1c(F)c(Cl)c(-c2ccc3nc(NC(=O)[C@@H]4C[C@@H]4F)sc3c2)c2cn[nH]c12 (stereo partly drawn) [Example 63, (1S,2S)-N-(6-(5-chloro-6-fluoro-7-(methylsulfinyl)-1H-indazol-4-yl)benzo[d]thiazol-2-yl)-2-fluorocyclopropane-1-carboxamide]
3 | < 100 nM | CC(C)Nc1c(F)c(Cl)c(-c2ccn3nc(NC(=O)[C@@H]4C[C@@H]4F)cc3c2)c2cn[nH]c12 [Example 619, (1S,2S)-N-(5-(5-chloro-6-fluoro-7-(isopropylamino)-1H-indazol-4-yl)pyrazolo[1,5-a]pyridin-2-yl)-2-fluorocyclopropane-1-carboxamide]
4 | < 100 nM | CCNc1c(F)c(Cl)c(-c2ccc3nc(NC(=O)[C@@H]4C[C@@H]4F)sc3n2)c2cn[nH]c12 [Example 159, (1S,2S)-N-(5-(5-chloro-7-(ethylamino)-6-fluoro-1H-indazol-4-yl)thiazolo[5,4-b]pyridin-2-yl)-2-fluorocyclopropane-1-carboxamide]
5 | < 100 nM | COc1cc(C)c(-c2ccc3nc(NC(=O)[C@@H]4C[C@@H]4F)sc3c2)c2cn[nH]c12 [Example 96, (1S,2S)-2-fluoro-N-(6-(7-methoxy-5-methyl-1H-indazol-4-yl)benzo[d]thiazol-2-yl)cyclopropanecarboxamide]
6 | 101 to 500 nM | CNC(=O)c1c(F)c(Cl)c(-c2ccc3nc(NC(=O)[C@@H]4C[C@@H]4F)sc3n2)c2cn[nH]c12 [Example 195, 5-chloro-6-fluoro-4-(2-((1S,2S)-2-fluorocyclopropane-1-carboxamido)thiazolo[5,4-b]pyridin-5-yl)-N-methyl-1H-indazole-7-carboxamide]
7 | < 100 nM | O=C(Nc1cn2cc(-c3c(Cl)c(F)c(N4CCOCC4)c4[nH]ncc34)ccc2n1)[C@@H]1C[C@@H]1F [Example 279, (1S,2S)-N-(6-(5-chloro-6-fluoro-7-morpholino-1H-indazol-4-yl)imidazo[1,2-a]pyridin-2-yl)-2-fluorocyclopropane-1-carboxamide]
8 | < 100 nM | N#CCNc1c(F)c(Cl)c(-c2ccn3nc(NC(=O)[C@@H]4C[C@@H]4F)cc3c2)c2cn[nH]c12 [Example 636, (1S,2S)-N-(5-(5-chloro-7-((cyanomethyl)amino)-6-fluoro-1H-indazol-4-yl)pyrazolo[1,5-a]pyridin-2-yl)-2-fluorocyclopropane-1-carboxamide]
9 | < 100 nM | C[S+]([O-])c1c(F)c(Cl)c(-c2ccn3nc(NC(=O)[C@@H]4C[C@@H]4F)cc3c2)c2cn[nH]c12 (stereo partly drawn) [Example 538, (1S,2S)-N-(5-(5-chloro-6-fluoro-7-(methylsulfinyl)-1H-indazol-4-yl)pyrazolo[1,5-a]pyridin-2-yl)-2-fluorocyclopropane-1-carboxamide]
10 | < 100 nM | CCc1c(F)cc2[nH]ncc2c1-c1ccc2nc(NC(=O)[C@@H]3C[C@@H]3F)cn2c1 [Example 294, (1S,2S)-N-(6-(5-ethyl-6-fluoro-1H-indazol-4-yl)imidazo[1,2-a]pyridin-2-yl)-2-fluorocyclopropane-1-carboxamide]
11 | > 1000 nM | O=C(Nc1cc2cc(-c3c(CO)ccc4[nH]ncc34)ccn2n1)[C@@H]1C[C@@H]1F [Example 461, (1S,2S)-2-fluoro-N-(5-(5-(hydroxymethyl)-1H-indazol-4-yl)pyrazolo[1,5-a]pyridin-2-yl)cyclopropane-1-carboxamide]
12 | > 1000 nM | CP(C)(=O)c1c(F)c(Cl)c(-c2ccc3nc(NC(=O)[C@@H]4C[C@@H]4F)sc3c2)c2cn[nH]c12 [Example 60, (1S,2S)-N-(6-(5-chloro-7-(dimethylphosphoryl)-6-fluoro-1H-indazol-4-yl)benzo[d]thiazol-2-yl)-2-fluorocyclopropane-1-carboxamide]
13 | < 100 nM | O=C(Nc1nc2ccc(-c3c(Cl)c(F)c(SCCO)c4[nH]ncc34)cc2s1)[C@@H]1C[C@@H]1F [Example 79, (1S,2S)-N-(6-(5-chloro-6-fluoro-7-((2-hydroxyethyl)thio)-1H-indazol-4-yl)benzo[d]thiazol-2-yl)-2-fluorocyclopropane-1-carboxamide]
14 | < 100 nM | CC(=O)Nc1c(F)c(Cl)c(-c2ccc3nc(NC(=O)[C@@H]4C[C@@H]4F)sc3c2)c2cn[nH]c12 [Example 108, (1S,2S)-N-(6-(7-acetamido-5-chloro-6-fluoro-1H-indazol-4-yl)benzo[d]thiazol-2-yl)-2-fluorocyclopropane-1-carboxamide]
15 | < 100 nM | COCc1c(F)c(Cl)c(-c2ccc3nc(NC(=O)[C@@H]4C[C@@H]4F)cn3c2)c2cn[nH]c12 [Example 390, (1S,2S)-N-(6-(5-chloro-6-fluoro-7-(methoxymethyl)-1H-indazol-4-yl)imidazo[1,2-a]pyridin-2-yl)-2-fluorocyclopropane-1-carboxamide]
16 | > 1000 nM | CCOc1c(F)cc2[nH]ncc2c1-c1ccc2nc(NC(=O)[C@@H]3C[C@@H]3F)sc2n1 [Example 201, (1S,2S)-N-(5-(5-ethoxy-6-fluoro-1H-indazol-4-yl)thiazolo[5,4-b]pyridin-2-yl)-2-fluorocyclopropane-1-carboxamide]
17 | 101 to 500 nM | N#Cc1ccc2[nH]ncc2c1-c1ccc2nc(NC(=O)C3CC3)sc2c1 [Example 29, N-(6-(5-cyano-1H-indazol-4-yl)benzo[d]thiazol-2-yl)cyclopropanecarboxamide]
18 | < 100 nM | CN(C)c1c(F)c(C(F)(F)F)c(-c2ccc3nc(NC(=O)[C@@H]4C[C@@H]4F)cn3c2)c2cn[nH]c12 [Example 307, (1S,2S)-N-(6-(7-(dimethylamino)-6-fluoro-5-(trifluoromethyl)-1H-indazol-4-yl)imidazo[1,2-a]pyridin-2-yl)-2-fluorocyclopropane-1-carboxamide]
19 | < 100 nM | Cn1nnnc1-c1c(F)c(Cl)c(-c2ccc3nc(NC(=O)[C@@H]4C[C@@H]4F)cn3c2)c2cn[nH]c12 [Example 350, (1S,2S)-N-(6-(5-chloro-6-fluoro-7-(1-methyl-1H-tetrazol-5-yl)-1H-indazol-4-yl)imidazo[1,2-a]pyridin-2-yl)-2-fluorocyclopropane-1-carboxamide]
20 | < 100 nM | CC(=O)c1c(F)c(Cl)c(-c2ccc3nc(NC(=O)[C@@H]4C[C@@H]4F)cn3c2)c2cn[nH]c12 [Example 319, (1S,2S)-N-(6-(7-acetyl-5-chloro-6-fluoro-1H-indazol-4-yl)imidazo[1,2-a]pyridin-2-yl)-2-fluorocyclopropane-1-carboxamide]
21 | < 100 nM | O=C(Nc1cn2cc(-c3c(Cl)c(F)c(Cn4cncn4)c4[nH]ncc34)ccc2n1)[C@@H]1C[C@@H]1F [Example 385, (1S,2S)-N-(6-(7-((1H-1,2,4-triazol-1-yl)methyl)-5-chloro-6-fluoro-1H-indazol-4-yl)imidazo[1,2-a]pyridin-2-yl)-2-fluorocyclopropane-1-carboxamide]
22 | < 100 nM | CCc1c(F)c(N(C)C)c2[nH]ncc2c1-c1ccn2nc(NC(=O)[C@@H]3C[C@@H]3F)cc2c1 [Example 519, (1S,2S)-N-(5-(7-(dimethylamino)-5-ethyl-6-fluoro-1H-indazol-4-yl)pyrazolo[1,5-a]pyridin-2-yl)-2-fluorocyclopropane-1-carboxamide]
23 | < 100 nM | CN(C)c1c(F)cc(-c2ccn3nc(NC(=O)[C@@H]4C[C@@H]4F)cc3c2)c2cn[nH]c12 [Example 583, (1S,2S)-N-(5-(7-(dimethylamino)-6-fluoro-1H-indazol-4-yl)pyrazolo[1,5-a]pyridin-2-yl)-2-fluorocyclopropane-1-carboxamide]
24 | < 100 nM | O=C(Nc1cc2cc(-c3c(Cl)c(F)c(N4CC[S+]([O-])CC4)c4[nH]ncc34)ccn2n1)[C@@H]1C[C@@H]1F [Example 635, (1S,2S)-N-(5-(5-chloro-6-fluoro-7-(1-oxidothiomorpholino)-1H-indazol-4-yl)pyrazolo[1,5-a]pyridin-2-yl)-2-fluorocyclopropane-1-carboxamide]
25 | < 100 nM | CCOc1c(F)c(C)c(-c2ccc3nc(NC(=O)[C@@H]4C[C@@H]4F)sc3c2)c2cn[nH]c12 [Example 98, (1S,2S)-N-(6-(7-ethoxy-6-fluoro-5-methyl-1H-indazol-4-yl)benzo[d]thiazol-2-yl)-2-fluorocyclopropanecatboxamide]
26 | < 100 nM | O=C(Nc1cc2cc(-c3c(Cl)c(F)c(O)c4[nH]ncc34)ccn2n1)[C@@H]1C[C@@H]1F [Example 528, (1S,2S)-N-(5-(5-chloro-6-fluoro-7-hydroxy-1H-indazol-4-yl)pyrazolo[1,5-a]pyridin-2-yl)-2-fluorocyclopropane-1-carboxamide]
27 | < 100 nM | CC(C)Oc1c(F)c(Cl)c(-c2ccn3nc(NC(=O)[C@@H]4C[C@@H]4F)cc3c2)c2cn[nH]c12 [Example 650, (1S,2S)-N-(5-(5-chloro-6-fluoro-7-isopropoxy-1H-indazol-4-yl)pyrazolo[1,5-a]pyridin-2-yl)-2-fluorocyclopropane-1-carboxamide]
28 | < 100 nM | O=C(Nc1cc2cc(-c3c(Cl)c(F)c(N4CCOCC4)c4[nH]ncc34)ccn2n1)[C@@H]1C[C@@H]1F [Example 498, (1S,2S)-N-(5-(5-chloro-6-fluoro-7-morpholino-1H-indazol-4-yl)pyrazolo[1,5-a]pyridin-2-yl)-2-fluorocyclopropane-1-carboxamide]
29 | < 100 nM | CC(Nc1c(F)c(Cl)c(-c2ccn3nc(NC(=O)[C@@H]4C[C@@H]4F)cc3c2)c2cn[nH]c12)C(F)F (stereo partly drawn) [Example 657, (1S,2S)-N-(5-(5-chloro-7-((1,1-difluoropropan-2-yl)amino)-6-fluoro-1H-indazol-4-yl)pyrazolo[1,5-a]pyridin-2-yl)-2-fluorocyclopropane-1-carboxamide]

— US11649255B2, “Indazoles as hematopoietic progenitor kinase 1 (HPK1) inhibitors and methods using same” (1st Biotherapeutics, Inc., priority 2020, dated 2023)
